From patent publication US11389539B2, “Hyaluronic acid derivatives into which cationic and hydrophobic groups are introduced” (CHUGAI SEIYAKU KABUSHIKI KAISHA, priority 2016, dated 2022)

Experiments:
[1] = system: ApoB mRNA; assay: Suppression of gene expression by HA derivatives containing nucleic acid (transfection of HepG2 cells, quantitative real-time PCR); format: cell-based, Human; conditions: siRNA 200 nM, 24 hours
Protocol: ApoB (sense strand: [NT] ID No. 1, number of nucleotides: 21), antisense strand: 3'-[…] ID No. 2, number of nucleotides: 23)) was used as siRNA. First, an aqueous solution of 0.5 mg/mL siRNA and 0.1-M Hepes buffer were mixed, to which 6 mg/mL aqueous solutions of the HA derivatives obtained in Examples 2 and 4 were added to an N/P ratio of 10 or 20 and was pipetted to prepare agents containing nucleic acid (the final concentration of siRNA was 800 nM and the final concentration of Hepes was 10 mM). In order to assess suppression effects of the HA derivatives containing nucleic acid obtained in Example 8-1 on gene expression, a transfection experiment was performed to HepG2 cells. The sucrose solutions containing the HA derivatives containing nucleic acid were added to a 96-well plate. HepG2 cells suspended in DMEM supplemented with 10% FBS was added to 1×10^4 cells/well and cultured for 24 hours. The final concentration of siRNA in transfection was 200 nM. Total RNA was extracted and purified according to the manual using a QIAGEN RNeasy 96 kit. By using the RNA-to-Ct 1 Step kit manufactured by Thermo Fisher Scientific, quantitative real-time PCR was performed on the target ApoB mRNA and GAPDH mRNA as the housekeeping gene using the following primers according to the instruction manual. For the quantitative real-time PCR, Rotor-Gene Q manufactured by QIAGEN was used. […]

[2] = Assessment of intraocular migration of eye drops (fluorescent-labeled HA derivative, confocal microscope); format: in vivo; conditions: mice, 3 μL eye drops to both eyes, 1 hour, frozen sections
Protocol: The 10k-HA-Chol-17%/ArgNH2-10%/EtOH-67%/FL synthesized in Example 2-26 was dissolved in 10% sucrose solution to a concentration of 50 mg/mL, and 3 μL of the resulting solution was applied to both eyes of mice. Both eyeballs were taken out after 1 hour and frozen sections were prepared. […] On the other hand, carboxyfluorescein was dissolved in 10% sucrose solution to a concentration of 0.0568 mg/mL, 3 μL of the resulting solution was applied to both eyes of mice, and an observation was performed as in the case of the 10k-HA-Chol-17%/ArgNH2-10%/EtOH-67%/FL. As a result, fluorescence from carboxyfluorescein was not observed in any tissues of the eyes including the cornea, conjunctiva and ciliary body.

| Substance | expression of ApoB [1] | distribution in the conjunctiva and the ciliary body by fluorescence detection [2] | distribution in the cornea by fluorescence detection [2] |
| --- | --- | --- | --- |
| siRNA alone: ApoB siRNA, sense strand SEQ ID No. 1 (21 nucleotides), antisense strand SEQ ID No. 2 (23 nucleotides) (sense GUCAUCACACUGAAUACCAAU; antisense AUUGGUAUUCAGUGUGAUGACAC; listed as RNA, chemistry not given here) | does not have an effect of suppressing gene expression |  |  |
| carboxyfluorescein |  | not observed | not observed |
